The target of the experiment is T1, human CTPS1 (Homo sapiens, UniProt P17812).
T1 construct: FLAG (with GG linker); His8 (with GG linker); purchased Proteros biostructures GmbH
T1 sequence (P17812 1-591): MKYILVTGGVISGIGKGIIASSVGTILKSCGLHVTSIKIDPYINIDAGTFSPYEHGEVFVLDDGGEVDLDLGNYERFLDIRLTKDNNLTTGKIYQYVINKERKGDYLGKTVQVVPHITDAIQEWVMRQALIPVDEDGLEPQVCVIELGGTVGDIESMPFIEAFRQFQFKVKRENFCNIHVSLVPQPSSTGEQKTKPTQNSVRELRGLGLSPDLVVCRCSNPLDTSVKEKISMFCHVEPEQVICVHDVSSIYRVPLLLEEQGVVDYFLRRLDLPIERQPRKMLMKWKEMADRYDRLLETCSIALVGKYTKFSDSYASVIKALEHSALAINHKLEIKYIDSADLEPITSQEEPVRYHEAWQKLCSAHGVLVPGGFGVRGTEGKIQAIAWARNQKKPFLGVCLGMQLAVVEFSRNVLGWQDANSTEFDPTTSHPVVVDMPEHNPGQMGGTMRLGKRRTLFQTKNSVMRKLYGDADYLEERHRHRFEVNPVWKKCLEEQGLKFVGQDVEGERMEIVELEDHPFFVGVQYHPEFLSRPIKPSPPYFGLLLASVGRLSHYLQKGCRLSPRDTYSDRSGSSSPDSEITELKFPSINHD
The experiment can be described thus: Human CTPS1 enzyme inhibition, ADP-Glo Max assay. The settings on record: ADP-Glo Max assay; Table 10; read-out: Human CTPS1 Enzyme Inhibition, IC50 grouped by potency range (CTPS1). In kind it is biochemical. An outline of the steps: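 Enzyme preincubated with compound for 10 min at 25 °C in 50 mM Tris pH 8.0, 10 mM MgCl2, 0.01% Tween-20, 2 mM L-cysteine. ATP-to-ADP conversion detected by ADP-Glo Max luminescence after 60 min depletion and 60 min development steps. Percentage inhibition calculated per concentration.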
(In general: ADP-Glo first removes unused ATP, then detects ADP through luciferase.)

One may read the IC50 as the concentration that inhibits the measured activity by half.

With `CC(C)Oc1cncc(-c2ccc(NC(=O)C(C)(C)c3csc(NS(=O)(=O)C4CC4)n3)cc2)n1` [T272, 2-(2-(cyclopropanesulfonamido)thiazol-4-yl)-N-(4-(6-isopropoxypyrazin-2-yl)phenyl)-2-methylpropanamide], the IC50 was less than 0.1 µM.

Regarding `COc1cccc(-c2ccc(NC(=O)C(C)(C)c3csc(NS(=O)(=O)C4CC4)n3)nc2)c1` [T232, 2-(2-(cyclopropanesulfonamido)thiazol-4-yl)-N-(5-(3-methoxyphenyl)pyridin-2-yl)-2-methylpropanamide], the IC50 lay within 0.1 to 1 µM.

For `C#Cc1cncc(-c2ccc(NC(=O)C(C)(C)c3csc(NS(=O)(=O)C4CC4)n3)cc2)n1` [T136, 2-(2-(cyclopropanesulfonamido)thiazol-4-yl)-N-(4-(6-ethynylpyrazin-2-yl)phenyl)-2-methylpropanamide], the IC50 is less than 0.1 µM.

As to `CCC(CC)(C(=O)Nc1ccc(-c2cccnc2)cc1F)c1csc(NS(=O)(=O)C2CC2)n1` [T121, 2-(2-(cyclopropanesulfonamido)thiazol-4-yl)-2-ethyl-N-(2-fluoro-4-(pyridin-3-yl)phenyl)butanamide], the IC50 was less than 0.1 µM.

Turning to `CC(C)Oc1cncc(-c2ccc(NC(=O)C(C)(C)c3csc(NS(=O)(=O)C4CC4)n3)cc2)c1` [T158, 2-(2-(cyclopropanesulfonamido)thiazol-4-yl)-N-(4-(5-isopropoxypyridin-3-yl)phenyl)-2-methylpropanamide], the IC50 was less than 0.1 µM.

With `COc1cc(NC(=O)C(C)(C)c2csc(NS(=O)(=O)C3CC3)n2)ccc1-c1cnccn1` [T43, 2-(2-(cyclopropanesulfonamido)thiazol-4-yl)-N-(3-methoxy-4-(pyrazin-2-yl)phenyl)-2-methylpropanamide], the IC50 fell in the range of 0.1 to 1 µM.

On to `COc1cncc(-c2cnc(NC(=O)C(C)(C)c3csc(NS(=O)(=O)C4CC4)n3)nc2)c1` [T292, 2-(2-(cyclopropanesulfonamido)thiazol-4-yl)-N-(5-(5-methoxypyridin-3-yl)pyrimidin-2-yl)-2-methylpropanamide], for which the IC50 is 0.1 to 1 µM.

Consider `CCC(C(=O)Nc1ccc(-c2cccnc2)cn1)c1csc(NS(=O)(=O)C2CC2)n1` (stereo not shown) [T62, N-([3,3′-bipyridin]-6-yl)-2-(2-(cyclopropanesulfonamido)thiazol-4-yl)butanamide], for which the IC50 lay within 0.1 to 1 µM.

Consider `CCOc1cncc(-c2ccc(NC(=O)C(F)(F)c3csc(NS(=O)(=O)C4CC4)n3)nc2)n1` [T422, 2-(2-(cyclopropanesulfonamido)thiazol-4-yl)-N-(5-(6-ethoxypyrazin-2-yl)pyridin-2-yl)-2,2-difluoroacetamide], for which the IC50 is 0.1 to 1 µM.

Turning to `CCOc1cncc(-c2ccc(NC(=O)C(C)(C)c3csc(NS(=O)(=O)C4CCC4)n3)cc2)n1` [T307, 2-(2-(cyclobutanesulfonamido)thiazol-4-yl)-N-(4-(6-ethoxypyrazin-2-yl)phenyl)-2-methylpropanamide], the IC50 is less than 0.1 µM.

In the case of `Cc1cncc(-c2ccc(NC(=O)Cc3csc(NS(=O)(=O)C4CC4)n3)cc2)c1` [T99, 2-(2-(cyclopropanesulfonamido)thiazol-4-yl)-N-(4-(5-methylpyridin-3-yl)phenyl)acetamide], the IC50 was less than 0.1 µM.

With `CCOc1cncc(-c2ccc(NC(=O)C(C)(C)c3csc(NS(=O)(=O)C4(C)CC4)n3)cc2)n1` [T301, N-(4-(6-ethoxypyrazin-2-yl)phenyl)-2-methyl-2-(2-((1-methylcyclopropane)-1-sulfonamido)thiazol-4-yl)propanamide], the IC50 was less than 0.1 µM.

For `O=C(Nc1ccc(-c2cccnc2)cc1)C(=O)c1csc(NS(=O)(=O)C2CC2)n1` [T104, 2-(2-(cyclopropanesulfonamido)thiazol-4-yl)-2-oxo-N-(4-(pyridin-3-yl)phenyl)acetamide], the half-inhibitory concentration (IC50) was in the range of 0.1 to 1 µM.

For `Cc1ccncc1-c1ccc(NC(=O)C(C)(C)c2csc(NS(=O)(=O)C3CC3)n2)cc1` [T254, 2-(2-(cyclopropanesulfonamido)thiazol-4-yl)-2-methyl-N-(4-(4-methylpyridin-3-yl)phenyl)propanamide], the IC50 was in the range of 0.1 to 1 µM.

Take `COc1cc(-c2cncc(C)c2)ccc1NC(=O)C(C)(C)c1csc(NS(=O)(=O)C2CC2)n1` [T258, 2-(2-(cyclopropanesulfonamido)thiazol-4-yl)-N-(2-methoxy-4-(5-methylpyridin-3-yl)phenyl)-2-methylpropanamide]: the IC50 lay within 0.1 to 1 µM.

Take `CC(C)(C(=O)Nc1ccc(-c2cncc(Cl)n2)cc1)c1csc(NS(=O)(=O)C2CC2)n1` [T155, N-(4-(6-chloropyrazin-2-yl)phenyl)-2-(2-(cyclopropanesulfonamido)thiazol-4-yl)-2-methylpropanamide]: the IC50 was less than 0.1 µM.

Regarding `CC(C)(C(=O)Nc1ccc(-c2cccc(Cl)n2)cc1)c1csc(NS(=O)(=O)C2CC2)n1` [T268, N-(4-(6-chloropyridin-2-yl)phenyl)-2-(2-(cyclopropanesulfonamido)thiazol-4-yl)-2-methylpropanamide], the IC50 lay within 0.1 to 1 µM.

In the case of `Cc1cc(NC(=O)C(C)(C)c2csc(NS(=O)(=O)C3CC3)n2)ccc1-c1cncc(Cl)c1` [T288, N-(4-(5-chloropyridin-3-yl)-3-methylphenyl)-2-(2-(cyclopropanesulfonamido)thiazol-4-yl)-2-methylpropanamide], the IC50 was in the range of 0.1 to 1 µM.

In the case of `CC(C)(C(=O)Nc1ccc(-c2cccnc2)c(F)c1F)c1csc(NS(=O)(=O)C2CC2)n1` [T36, 2-(2-(cyclopropanesulfonamido)thiazol-4-yl)-N-(2,3-difluoro-4-(pyridin-3-yl)phenyl)-2-methylpropanamide], the IC50 lay within 0.1 to 1 µM.

For the molecule `COc1nccc(C)c1-c1ccc(NC(=O)C(C)(C)c2csc(NS(=O)(=O)C3CC3)n2)cc1` [T250, 2-(2-(cyclopropanesulfonamido)thiazol-4-yl)-N-(4-(2-methoxy-4-methylpyridin-3-yl)phenyl)-2-methylpropanamide], the IC50 is 1 to 10 µM.

Consider `COc1cc(OC)cc(-c2ccc(NC(=O)C(C)(C)c3csc(NS(=O)(=O)C4CC4)n3)nc2)c1` [T234, 2-(2-(cyclopropanesulfonamido)thiazol-4-yl)-N-(5-(3,5-dimethoxyphenyl)pyridin-2-yl)-2-methylpropanamide], for which the IC50 lay within 1 to 10 µM.

In the case of `COc1ccc(-c2ccc(NC(=O)C(C)(C)c3csc(NS(=O)(=O)C4CC4)n3)cc2)cn1` [T46, 2-(2-(cyclopropanesulfonamido)thiazol-4-yl)-N-(4-(6-methoxypyridin-3-yl)phenyl)-2-methylpropanamide], the IC50 lay within 1 to 10 µM.

For `CC(C)(C(=O)Nc1ccc(-c2cncc(OC3CCC3)n2)cc1)c1csc(NS(=O)(=O)C2CC2)n1` [T54, N-(4-(6-cyclobutoxypyrazin-2-yl)phenyl)-2-(2-(cyclopropanesulfonamido)thiazol-4-yl)-2-methylpropanamide], the IC50 lay in the range of 0.1 to 1 µM.

In the case of `CCCOc1cncc(-c2ccc(NC(=O)C(C)(C)c3csc(NS(=O)(=O)C4CC4)n3)cc2)c1` [T157, 2-(2-(cyclopropanesulfonamido)thiazol-4-yl)-2-methyl-N-(4-(5-propoxypyridin-3-yl)phenyl)propanamide], the IC50 was less than 0.1 µM.

In the case of `CCC(CC)(C(=O)Nc1ccc(-c2cncc(F)c2)cc1)c1csc(NS(=O)(=O)C2CC2)n1` [T156, 2-(2-(cyclopropanesulfonamido)thiazol-4-yl)-2-ethyl-N-(4-(5-fluoropyridin-3-yl)phenyl)butanamide], the IC50 was less than 0.1 µM.

These data come from patent US20230086703A1, “N-(4-(5-chloropyridin-3-yl)phenyl)-2-(2-(cyclopropanesulfonamido)pyrimidin-4-yl) butanamide derivatives and related compounds as human CTPS1 inhibitors for the treatment of proliferative diseases” (Step Pharma S.A.S., priority 2019, published 2023).
